According to patent US8431593B2, “Heteroaryl amide derivatives” (H. Lundbeck A/S, priority 2006, dated 2013):
pIC50: −log10 of the molar value.

Target: T1, P2X7 receptor (Homo sapiens, UniProt Q99572)
T1 construct: host or cells: SH-SY5Y
T1 sequence (Q99572 1-595): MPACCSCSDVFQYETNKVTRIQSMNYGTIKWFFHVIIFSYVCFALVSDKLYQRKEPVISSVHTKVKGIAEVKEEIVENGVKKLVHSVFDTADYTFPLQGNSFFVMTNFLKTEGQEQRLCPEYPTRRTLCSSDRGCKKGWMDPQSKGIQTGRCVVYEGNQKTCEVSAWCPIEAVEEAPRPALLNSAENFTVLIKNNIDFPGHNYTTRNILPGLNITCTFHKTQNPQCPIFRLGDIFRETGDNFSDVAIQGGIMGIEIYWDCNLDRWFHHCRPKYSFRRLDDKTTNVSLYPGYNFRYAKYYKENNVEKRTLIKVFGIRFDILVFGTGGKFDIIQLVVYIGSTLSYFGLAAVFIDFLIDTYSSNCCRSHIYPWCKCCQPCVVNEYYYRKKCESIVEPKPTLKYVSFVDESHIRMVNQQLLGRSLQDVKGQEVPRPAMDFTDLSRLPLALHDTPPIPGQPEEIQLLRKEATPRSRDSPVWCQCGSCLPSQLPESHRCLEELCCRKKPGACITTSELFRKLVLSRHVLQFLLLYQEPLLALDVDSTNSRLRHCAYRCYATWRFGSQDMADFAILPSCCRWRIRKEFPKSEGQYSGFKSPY
Assay: P2X7 calcium mobilization assay, high throughput, antagonist activity (Example 4A)
Assay type: cell-based
Settings: 50% decrease in the fluorescence response of cells exposed to 80 μM of 2′(3′)-O-(4-benzoyl-benzoyl)adenosine 5′-triphosphate; determined as in Example 4A; read-out: IC50
In short: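 FLIPR^TETRA calcium read-out: maximum RFU per well minus average no-agonist control, with agonist wells giving the average positive maximum. Cells seeded at 100,000/well one day ahead, dye-loaded 1 h, rinsed, then exposed to compound for 1 h at room temperature.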

SMILES | pIC50
CCOC(=O)C(Cc1ccc(Cl)cc1)c1cn2c(C(=O)NCC(CC(C)C)c3ccc(Cl)cc3)cccc2n1 (centres unmarked) [Compound 932, ethyl 3-(4-chlorophenyl)-2-(5-{[2-(4-chlorophenyl)-4-methylpentyl]carbamoyl}imidazo [1,2-a]pyridin-2-yl)propanoate] | > 5.70
CCOC(=O)C(Cc1ccccc1)c1cn2c(C(=O)NCC3(c4ccc(Cl)cc4)CCCCC3)cccc2n1 (centres unmarked) [Compound 933, ethyl 2-[5-({[1-(4-chlorophenyl)cyclohexyl]methyl}carbamoyl)imidazo[1,2-a]pyridin-2-yl]-3-phenylpropanoate] | > 5.70
CCOC(=O)C(Cc1ccc(Cl)cc1)c1cn2c(C(=O)NCC3(c4ccc(Cl)cc4)CCCCC3)cccc2n1 (centres unmarked) [Compound 934, ethyl 3-(4-chlorophenyl)-2-[5-({[1-(4-chlorophenyl)cyclohexyl]methyl}carbamoyl)imidazo[1,2-a]pyridin-2-yl]propanoate] | > 5.70
O=C(NCC1(c2ccc(Cl)cc2)CCCCC1)c1cccc2nc(C(Cc3ccc(Cl)cc3)C(=O)O)cn12 (centres unmarked) [Compound 935, 3-(4-chlorophenyl)-2-[5-({[1-(4-chlorophenyl)cyclohexyl]methyl}carbamoyl)imidazo[1,2-a]pyridin-2-yl] propanoic acid] | > 5.70
O=C(NCC1(c2ccc(Cl)cc2)CCCCC1)c1cccc2nc(C(Cc3ccccc3)C(=O)O)cn12 (centres unmarked) [Compound 936, 2-[5-({[1-(4-chlorophenyl)cyclohexyl]methyl}carbamoyl)imidazo[1,2-a]pyridin-2-yl]-3-phenylpropanoic acid] | > 5.70
O=C(NCC1(c2ccc(Cl)cc2)CCCCC1)c1cccc2nc(C(Cc3ccccn3)C(=O)O)cn12 (centres unmarked) [Compound 937, 2-[5-({[1-(4-chlorophenyl)cyclohexyl]methyl}carbamoyl)imidazo[1,2-a]pyridin-2-yl]-3-pyridin-2-ylpropanoic acid] | > 5.70
CC(C)CC(CNC(=O)c1cccc2nc(C(Cc3ccccn3)C(=O)O)cn12)c1ccc(Cl)cc1 (centres unmarked) [Compound 938, 2-(5-{[2-(4-chlorophenyl)-4-methylpentyl]carbamoyl}imidazo[1,2-a]pyridin-2-yl)-3-pyridin-2-ylpropanoic acid] | > 5.70
CC(C)CC(CNC(=O)c1cccc2nc(C(Cc3ccccc3)C(=O)O)cn12)c1ccc(Cl)cc1 (centres unmarked) [Compound 939, 2-(5-{[2-(4-chlorophenyl)-4-methylpentyl]carbamoyl}imidazo[1,2-a]pyridin-2-yl)-3-phenylpropanoic acid] | > 5.70
CC(C)CC(CNC(=O)c1cccc2nc(C(Cc3ccc(Cl)cc3)C(=O)O)cn12)c1ccc(Cl)cc1 (centres unmarked) [Compound 940, 3-(4-chlorophenyl)-2-(5-{[2-(4-chlorophenyl)-4-methylpentyl]carbamoyl}imidazo[1,2-a]pyridin-2-yl) propanoic acid] | > 5.70
O=C(O)CCc1cn2c(C(=O)NCC3(c4ccc(C(F)(F)F)cc4)CCCCC3)cccc2n1 [Compound 941, 3-{5-[({1-[4-(trifluoromethyl)phenyl]cyclohexyl}methyl)carbamoyl]imidazo [1,2-a]pyridin-2-yl}propanoic acid] | > 5.70
CC(C)CC(CNC(=O)c1cccc2nc(CN3CC[C@@H](O)C3)cn12)c1ccc(Cl)cc1 (stereo partly drawn) [Compound 942, N-[2-(4-chlorophenyl)-4-methylpentyl]-2-{[(3R)-3-hydroxypyrrolidin-1-yl]methyl} imidazo[1,2-a]pyridine-5-carboxamide] | > 5.70
CC(C)CC(CNC(=O)c1cccc2nc(CN(C)CCO)cn12)c1ccc(Cl)cc1 (centres unmarked) [Compound 943, N-[2-(4-chlorophenyl)-4-methylpentyl]-2-{[(2-hydroxyethyl)(methyl)amino]methyl}imidazo [1,2-a]pyridine-5-carboxamide] | > 5.70
CCOC(=O)C1(c2cn3c(C(=O)NCC45CC6CC(CC(C6)C4)C5)cccc3n2)CCOCC1 [Compound 944, ethyl 4-{5-[(adamantan-1-ylmethyl)carbamoyl]imidazo[1,2-a]pyridin-2-yl}tetrahydro-2H-pyran-4-carboxylate] | > 5.70
O=C(NCC12CC3CC(CC(C3)C1)C2)c1cccc2nc(C3(C(=O)O)CCOCC3)cn12 [Compound 945, 4-{5-[(adamantan-1-ylmethyl)carbamoyl]imidazo[1,2-a]pyridin-2-yl}tetrahydro-2H-pyran-4-carboxylic acid] | > 5.70
CC(C)CC(CNC(=O)c1cccc2nc(CC(=O)N3CCC[C@@H](N)C3)cn12)c1cccnc1 (stereo partly drawn) [Compound 946, 2-{2-[(3R)-3-aminopiperidin-1-yl]-2-oxoethyl}-N-(4-methyl-2-pyridin-3-ylpentyl) imidazo[1,2-a]pyridine-5-carboxamide] | > 5.70
N[C@@H]1CCCN(C(=O)Cc2cn3c(C(=O)NCC4(c5cccnc5)CCCCC4)cccc3n2)C1 [Compound 947, 2-{2-[(3R)-3-aminopiperidin-1-yl]-2-oxoethyl}-N-[(1-pyridin-3-ylcyclohexyl)methyl] imidazo[1,2-a] pyridine-5-carboxamide] | > 5.70
Cc1ccc(C2(CNC(=O)c3cccc4nc(CC(=O)N5CCC[C@@H](N)C5)cn34)CCCCC2)cn1 [Compound 948, 2-{2-[(3R)-3-amino-piperidin-1-yl]-2-oxoethyl}-N-{[1-(6-methylpyridin-3-yl)cyclohexyl]methyl} imidazo[1,2-a] pyridine-5-carboxamide] | > 5.70
O=C(O)Cc1cn2c(C(=O)NCC3(c4ccc(Cl)cc4)CCCCC3)cccc2n1 [Compound 949, [5-({[1-(4-chlorophenyl)cyclohexyl]methyl}carbamoyl)imidazo[1,2-a]pyridin-2-yl]acetic acid] | > 5.70
COc1ccc(C2(CNC(=O)c3cccc4nc(CC(=O)N[C@@H]5CCN(C(=O)OC(C)(C)C)C5)cn34)CCCCC2)cc1 [Compound 950, tert-butyl (3R)-3-({[5-({[1-(4-methoxyphenyl)cyclohexyl]methyl}carbamoyl)imidazo [1,2-a]pyridin-2-yl]acetyl}amino) pyrrolidine-1-carboxylate] | > 5.70
CCCC(CNC(=O)c1cccc2nc(CC(=O)N[C@@H]3CCNC3)cn12)c1ccc(Cl)cc1 (stereo partly drawn) [Compound 951, N-[2-(4-chlorophenyl)pentyl]-2-{2-oxo-2-[(3R)-pyrrolidin-3-ylamino]ethyl} imidazo[1,2-a] pyridine-5-carboxamide] | > 5.70
COc1ccc(C2(CNC(=O)c3cccc4nc(CC(=O)N[C@@H]5CCNC5)cn34)CCCCC2)cc1 [Compound 952, N-{[1-(4-methoxyphenyl)cyclohexyl]methyl}-2-{2-oxo-2-[(3R)-pyrrolidin-3-ylamino]ethyl}imidazo[1,2-a]pyridine-5-carboxamide] | > 5.70
O=C(NCC12CC3CC(CC(C3)C1)C2)c1cccc2nc([C@H]3CC[C@@H](C(=O)O)CC3)cn12 [Compound 954, cis-4-{5-[(adamantan-1-ylmethyl)carbamoyl]imidazo[1,2-a]pyridin-2-yl} cyclohexane-carboxylic acid] | > 5.70
NC(=O)c1cccc(NC(=O)Cc2cn3c(C(=O)NCC4CCCCCC4)cccc3n2)c1 [Compound 955, 2-{2-[(3-carbamoylphenyl)amino]-2-oxoethyl}-N-(cycloheptylmethyl) imidazo[1,2-a] pyridine-5-carboxamide] | > 5.70
